How the values were obtained:
[1] = target: Cholinesterase (Equus caballus) (UniProt P81908); settings: at 2 mg/mL
Description: Inhibition of horse BChE at 2 mg/ml by Ellman's method

[2] = target: Acetylcholinesterase (Electrophorus electricus) (UniProt O42275); settings: at 2 mg/mL
Description: Inhibition of electric eel AChE at 2 mg/ml by Ellman's method

Chain of Cholinesterase (Equus caballus) (P81908 whole entry): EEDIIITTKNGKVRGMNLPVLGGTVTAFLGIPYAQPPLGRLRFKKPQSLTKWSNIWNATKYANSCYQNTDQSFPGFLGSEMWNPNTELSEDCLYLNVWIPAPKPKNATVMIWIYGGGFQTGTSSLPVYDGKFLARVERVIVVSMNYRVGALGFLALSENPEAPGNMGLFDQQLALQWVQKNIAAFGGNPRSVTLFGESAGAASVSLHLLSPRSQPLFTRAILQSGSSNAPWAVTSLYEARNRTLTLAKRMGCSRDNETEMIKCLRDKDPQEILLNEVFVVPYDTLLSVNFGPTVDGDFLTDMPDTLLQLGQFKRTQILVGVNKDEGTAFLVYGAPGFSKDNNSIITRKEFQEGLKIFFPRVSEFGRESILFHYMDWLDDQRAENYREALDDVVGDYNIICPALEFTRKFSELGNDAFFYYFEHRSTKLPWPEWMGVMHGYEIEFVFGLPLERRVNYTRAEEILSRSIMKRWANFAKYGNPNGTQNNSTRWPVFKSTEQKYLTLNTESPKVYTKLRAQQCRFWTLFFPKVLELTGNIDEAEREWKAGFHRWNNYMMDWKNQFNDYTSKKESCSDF

| Compound | inhibition [1] | inhibition [2] |
| --- | --- | --- |
| C[C@@H]1Cc2c(Cl)cc(C(=O)N[C@@H](Cc3ccccc3)C(=O)O)c(O)c2C(=O)O1 | 8.75% | -6.4% |
| C[C@@H]1O[C@@H](OC[C@H]2O[C@@H](Oc3cc(O)c4c(c3)O[C@H](c3ccc(O)cc3)CC4=O)[C@H](O)[C@@H](O)[C@@H]2O)[C@H](O)[C@H](O)[C@H]1O | -0.5% | 22.1% |
| Cn1cnc2c1c(=O)[nH]c(=O)n2C | 3.88% | 39.4% |
| CO[C@@]12[C@H](COC(N)=O)C3=C(C(=O)C(C)=C(N)C3=O)N1C[C@@H]1N[C@@H]12 | 3.34% | 4.01% |
| O=C1C[C@@H](c2ccc(O)c(O)c2)Oc2cc(O)cc(O)c21 | -0.11% | 20.2% |
| O=C1c2cccc(O)c2C(=O)c2c(O)cc(CO)cc21 | -0.88% | 14.6% |
| CC(=O)O[C@H]1CC[C@]2(C=O)[C@H]3CC[C@]4(C)[C@@H](C5=CC(=O)OC5)CC[C@]4(O)[C@@H]3CC[C@]2(O)C1 | -2.95% | -2.93% |
| O=C1C[C@@H](c2ccccc2)Oc2cc(O)cc(O)c21 | 1.45% | 27.3% |
| O=C(O)c1cc(N(Cc2ccccc2O)Cc2cc(O)ccc2O)ccc1O | 17.7% | 2.35% |
| COc1ccc2c3c([nH]c2c1)C(C)=NCC3 | 0.63% | 40.4% |
| O=c1cc(-c2ccccc2)oc2cc(O)ccc12 | -0.25% | 24.4% |
| C[C@H]1CCC[C@@H](O)CCCCCc2cc(O)cc(O)c2C(=O)O1 | -4.26% | -1.34% |
| Cn1c(-c2ccc3c(c2)OCO3)cc(=O)c2ccccc21 | 9.48% | 31.1% |
| COC1=CC(=O)O[C@@H](CCc2ccc3c(c2)OCO3)C1 | 3.66% | 24.8% |
| C[C@H]1[C@H](OC(=O)CCC(=O)O)O[C@@H]2O[C@@]3(C)CC[C@H]4[C@H](C)CC[C@@H]1[C@@]24OO3 | 4.77% | -5.55% |
| C=CCc1cc(OC)c2c(c1)OCO2 | -9.87% | 6.75% |
| COc1cccc2oc(-c3ccccc3)cc(=O)c12 | 18.3% | 37.5% |
| CC1=C2[C@H]3OC(=O)[C@@H](C)[C@@H]3CC[C@@]2(C)C=CC1=O | -3.62% | 3.63% |
| CC[C@]12CCCN3CCc4c(n(c5ccccc45)C(=O)C1)[C@@H]32 | 0.04% | 12.1% |
| CC(C)CCNC(=O)[C@H](CC(C)C)NC(=O)[C@H]1O[C@@H]1C(=O)O | 10.6% | -1.94% |
| C[C@@H]1O[C@@H](O[C@H]2C[C@@H](O)[C@]3(CO)[C@H]4[C@H](O)C[C@]5(C)[C@@H](C6=CC(=O)OC6)CC[C@]5(O)[C@@H]4CC[C@]3(O)C2)[C@H](O)[C@H](O)[C@H]1O | 5.11% | -3.72% |
| C[C@@H]1[C@H](O)[C@@H](C)/C=C/C=C/C=C/C=C/C=C/C=C/C=C/[C@H](O[C@@H]2O[C@H](C)[C@@H](O)[C@H](N)[C@@H]2O)C[C@@H]2O[C@](O)(C[C@@H](O)C[C@@H](O)[C@H](O)CC[C@@H](O)C[C@@H](O)CC(=O)O[C@H]1C)C[C@H](O)[C@H]2C(=O)O | 11.9% | 8.91% |
| O=C(O)c1cc(N(Cc2ccccc2O)Cc2ccccc2O)ccc1O | 1.67% | 2.48% |

| Compound | inhibition [1] | inhibition [2] |
| --- | --- | --- |
| COc1cc(/C=C/c2ccccc2)oc(=O)c1 | -0.13% | -0.87% |
| CC[C@]1(O)C[C@@H]2CN(CCc3c([nH]c4ccccc34)[C@@](C(=O)OC)(c3cc4c(cc3OC)N(C)[C@H]3[C@@](O)(C(=O)OC)[C@H](OC(C)=O)[C@]5(CC)C=CCN6CC[C@]43[C@@H]65)C2)C1 | 0.36% | 15.4% |
| CCCC[C@@H](C)[C@@H](OC(=O)C[C@@H](CC(=O)O)C(=O)O)[C@H](C[C@@H](C)CCCCCC[C@@H](O)C[C@H](O)[C@H](C)N)OC(=O)C[C@@H](CC(=O)O)C(=O)O | 15.1% | -8.37% |
| COc1ccc(/C=C/c2cc(OC)cc(=O)o2)cc1 | -1.55% | 7.69% |
| COc1cc(/C=C/C(=O)c2ccc(O)cc2O)ccc1O | -0.11% | 26.5% |
| COc1cc([C@@H]2c3cc4c(cc3[C@@H](O)[C@H]3COC(=O)[C@H]23)OCO4)cc(OC)c1O | -7.02% | 6.34% |
| COc1c2c(nc3ccccc13)OC(C(C)(O)CO)C2 (stereo unspecified) | -2.71% | 22.5% |
| CN1C[C@H](CO)C[C@@H]2c3cccc4[nH]cc(c34)C[C@H]21 | 15.3% | 6.82% |
| CC(C)[C@@]1(O)[C@@H](OC(=O)c2cc[nH]c2)[C@@]2(O)[C@]3(C)C[C@@]4(O)O[C@@]5([C@H](O)[C@@H](C)CC[C@]35O)[C@@]2(O)[C@@]41C | -2.13% | 21.7% |
| C[C@@H]1O[C@@H](OC[C@H]2O[C@@H](Oc3cc(O)c4c(=O)cc(-c5ccc(O)cc5)oc4c3)[C@H](O)[C@@H](O)[C@@H]2O)[C@H](O)[C@H](O)[C@H]1O | -5.05% | 23% |
| IVERMECTIN | -3.98% | 17.8% |
| CCCCCCCCCCCCCC(=O)O[C@@H]1[C@@H](C)[C@@]2(O)[C@@H](C=C(CO)C[C@@]3(O)C(=O)C(C)=C[C@@H]23)[C@H]2C(C)(C)[C@]12OC(C)=O | -0.91% | 12.9% |
| CC(C)(S)[C@H](N)C(=O)O | -6.36% | 11.7% |
| Cc1cc2cc3c(C)cc(=O)oc3c(C)c2o1 | 2.42% | 14.3% |
| O=C(/C=C/c1ccc(O)c(O)c1)c1ccc(O[C@@H]2O[C@H](CO)[C@@H](O)[C@H](O)[C@H]2O)c(O)c1O | 2.03% | 22.2% |
| C[C@]1(C(=O)O)CCC[C@]2(C)c3cc(O)ccc3CC[C@@H]12 | -2.99% | -4.47% |
| O=c1c(O)c(-c2cc(O)c(O)c(O)c2)oc2cc(O)ccc12 | -7.22% | 15.7% |
| COc1c2occc2c(OC)c2c(=O)cc(C)oc12 | 3.3% | 7.57% |
| COc1ccc2ccc(=O)oc2c1CC=C(C)C | -0.19% | 3.31% |
| COC1=C[C@@H]2[C@@H]3Cc4ccc(OC)c(O)c4[C@]2(CCN3C)CC1=O | 5.14% | 4.63% |
| C/C=C(/C)C(=O)O[C@H]1C[C@@]2(C)O[C@H]2[C@@H](O)[C@@]2(C)CC[C@@](O)(C(C)C)[C@H]12 | -1.91% | 17.2% |
| COc1ccc2c(c1)[nH]c1c(C)nccc12 | 12.1% | 50.9% |
| O=C1c2c(O)cc(O)cc2O[C@H](c2ccc(O)c(O)c2)[C@H]1O | 0.97% | 17.8% |

| Compound | inhibition [1] | inhibition [2] |
| --- | --- | --- |
| COc1ccc2cc1Oc1ccc(cc1)C[C@H]1c3cc(c(OC)cc3CCN1C)Oc1c(OC)c(OC)cc3c1[C@H](C2)N(C)CC3 | -1.1% | 15.5% |
| O=C(/C=C/C=C/c1ccc2c(c1)OCO2)N1CCCCC1 | 16.8% | -0.1% |
| O=c1c(O[C@@H]2O[C@H](CO)[C@@H](O)[C@H](O)[C@H]2O)c(-c2ccc(O)c(O)c2)oc2cc(O)cc(O)c12 | 2.54% | 0.12% |
| O=C1Nc2ccccc2/C1=C1/Nc2ccccc2C1=O | 13.7% | 7.97% |
| CC1=C(O)C(=O)C=C2C1=CC=C1[C@@]2(C)CC[C@@]2(C)[C@@H]3C[C@](C)(C(=O)O)CC[C@]3(C)CC[C@]12C | 1.01% | 22.1% |
| CCCCCCCCCCC1=C(C)C(=O)C(OC)=C(OC)C1=O | 0.01% | 21.8% |
| C[C@H]1[C@H](C)CC[C@]2(C(=O)O)CC[C@]3(C)C(=CC[C@@H]4[C@@]5(C)C[C@@H](O)[C@H](O)[C@@](C)(CO)[C@@H]5[C@H](O)C[C@]43C)[C@H]12 | -7.93% | -1.33% |
| CC1=C(/C=C/C(C)=C/C=C/C(C)=C\C(=O)O)C(C)(C)CCC1 | 0.91% | 11.5% |
| C[N+](C)(C)CC(O)CC(=O)O (racemic) | -2.91% | -6.56% |
| COc1cc(-c2oc3cc(O)ccc3c(=O)c2O)ccc1O | 12.8% | 3.26% |
| COc1cc2c(c(OC)c1OC)-c1c(cc(OC)c(OC)c1OC)C[C@H](C)[C@H](C)C2 | -4.82% | -1.7% |
| CC[C@@H](C)C(=O)O[C@H]1[C@H](O)[C@H]2[C@@H](CN3C[C@@H](C)CC[C@H]3[C@@]2(C)O)[C@@H]2C[C@]34O[C@]5(O)[C@@H](OC(=O)[C@](C)(O)[C@@H](C)O)CC[C@@]3(C)[C@@H]5[C@@H](OC(C)=O)[C@@H](OC(C)=O)[C@H]4[C@@]21O | -0.35% | -5.22% |
| C[C@@]12C(=O)OC(=O)[C@]1(C)[C@H]1CC[C@@H]2O1 | -2.13% | -7.81% |
| C[C@@H]1O[C@@H](O[C@H]2C(Oc3cc(O)c4c(=O)c(O)c(-c5ccc(O)cc5)oc4c3)O[C@H](CO)[C@@H](O)[C@@H]2O)[C@H](O)[C@H](O)[C@H]1O (stereo partly specified) | -4.78% | 24.5% |
| COc1ccc2c(OC)c3ccoc3nc2c1OC | 6.79% | 39.3% |
| CO[C@@H]1C[C@@H](C[C@H]2CC[C@H](C)[C@H]([C@@H](C)C(=O)O)O2)O[C@]2(O[C@](C)([C@H]3CC[C@@](C)([C@@H]4O[C@@H]([C@H]5O[C@@](O)(CO)[C@H](C)C[C@@H]5C)C[C@@H]4C)O3)C[C@H]2C)[C@@H]1C | 4.98% | -7.25% |
| C/C1=C/CCC(C)(O)/C=C\C(C(C)C)C(OC(=O)c2ccc(O)cc2)C1 (stereo unspecified) | -0.77% | 23.7% |
| C[C@H]1COC2=C1C(=O)C(=O)c1c2ccc2c1CCCC2(C)C | 12.1% | 3.33% |
| C[N+]1([O-])[C@@H]2C[C@H](OC(=O)[C@H](CO)c3ccccc3)C[C@@H]1[C@H]1O[C@H]12 (stereo partly specified) | -1.85% | -6.51% |
| CO[C@H]1[C@H](O)[C@H](O[C@H]2CC[C@@]3(C=O)[C@H](CC[C@@H]4[C@@H]3CC[C@]3(C)[C@@H](C5=CC(=O)OC5)CC[C@]43O)C2)O[C@@H](C)[C@@H]1O | -1.96% | 4.45% |
| C=C1CC[C@H]2C(=C)CC[C@H]3C(=C)C(=O)O[C@@H]3[C@@H]12 | 10.7% | 4.06% |
| CCCCCCCCCCCCCC[C@@H](O)[C@@H](O)[C@H](CO)NC(C)=O | 3.97% | 0.15% |

Source: ChEMBL document CHEMBL2163249, “Exploration of natural compounds as sources of new bifunctional scaffolds targeting cholinesterases and beta amyloid aggregation: the case of chelerythrine” (Bioorg Med Chem, 2012)
